# Data: patent publication US4536346A, “Aralkanamidophenyl compounds” (American Cyanamid Company, priority 1983, dated 1985)
# Target: T1, fatty acyl CoA: cholesterol acyl transferase (ACAT) (Rattus norvegicus, UniProt O70536)
# T1 construct: The supernatant, containing the microsomal fraction, served as the source of the cholesterol-esterifying enzyme; from tissue; host or cells: rat adrenals (1,000 x g supernatant containing the microsomal fraction)
# T1 sequence (O70536 1-545): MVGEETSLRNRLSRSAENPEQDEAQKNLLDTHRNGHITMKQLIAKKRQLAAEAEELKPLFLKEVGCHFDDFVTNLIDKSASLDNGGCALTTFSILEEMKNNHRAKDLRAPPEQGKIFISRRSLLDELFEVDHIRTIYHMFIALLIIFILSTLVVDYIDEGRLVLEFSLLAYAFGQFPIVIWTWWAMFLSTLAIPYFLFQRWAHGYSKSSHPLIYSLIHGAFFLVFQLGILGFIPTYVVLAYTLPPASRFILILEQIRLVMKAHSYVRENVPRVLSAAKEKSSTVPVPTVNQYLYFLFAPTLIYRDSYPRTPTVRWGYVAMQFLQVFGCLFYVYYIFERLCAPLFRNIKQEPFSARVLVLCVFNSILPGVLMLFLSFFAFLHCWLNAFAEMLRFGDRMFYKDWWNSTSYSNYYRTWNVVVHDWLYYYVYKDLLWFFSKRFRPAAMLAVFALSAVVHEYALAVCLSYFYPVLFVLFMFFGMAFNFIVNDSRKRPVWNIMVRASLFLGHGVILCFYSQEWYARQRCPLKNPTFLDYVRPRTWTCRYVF
# Assay: Inhibition of enzymatic esterification of cholesterol (ACAT) in rat adrenal supernatant containing the microsomal fraction
# Format: biochemical
# Conditions: final concentration of test compound 5.2 μg./ml., percent inhibition of the ACAT enzyme compared to control values
# Experimental: The compounds of the present invention were tested for their ability to inhibit the enzymatic esterification of cholesterol according to the following procedure:
# Rat adrenals were homogenized in 0.2M monobasic potassium phosphate buffer, pH 7.4, and centrifuged at 1,000 times gravity for 15 minutes at 5° C. The supernatant, containing the microsomal fraction, served as the source of the cholesterol-esterifying enzyme, fatty acyl CoA: cholesterol acyl transferase (ACAT). A mixture comprising 50 parts of adrenal supernatant, 10 parts of albumin (BSA) (50 mg./ml.), […], 3 parts of test compound, and 500 parts of buffer was pre-incubated at 37° C. for 10 minutes. After treatment with 20 parts of oleoyl CoA (^14 C-0.4 μCi), the mixture was incubated at 37° C. for 10 minutes. A control mixture, omitting the test compound, was prepared and treated in the same manner. The lipids from the incubation mixture were extracted into an organic solvent and separated by thin-layer chromatography. The cholesterol ester fraction was counted in a scintillation counter. This procedure is a modification of that described by Hashimoto, et al., Life Scie., 12 (Part II), 1-12 (1973).
# The results of this test on representative compounds of this invention appear in Table I. The final concentration of the test compound was 5.2 μg./ml., and the effectiveness of the compound is expressed as percent inhibition of the ACAT enzyme compared to control values.
row,Structure (SMILES),inhibition at 5.2 µg/mL [%]
1,"Cc1ccc(C(CC(=O)Nc2ccc(F)cc2)c2ccc(C)cc2)cc1 [N--(p-Fluorophenyl)-3,3-bis(p-tolyl)propionamide]",92
2,"CCOC(=O)c1ccc(NC(=O)CC(c2ccc(C)cc2)c2ccc(C)cc2)cc1 [Ethyl 4'-[3,3-bis(4-methylphenyl)propionamido]benzoate]",95
3,"Cc1ccc(C(=CC(=O)Nc2ccc(C(=O)O)cc2)c2ccc(C)cc2)cc1 [4-[3,3-Di-(p-tolyl)acrylamido]benzoic acid]",89
4,"O=C(C=C(c1ccc(Cl)cc1)c1ccc(Cl)cc1)Nc1cccc(C(=O)O)c1 [3 - [3,3-Bis(p-chlorophenyl)acrylamido]benzoic acid]",98
5,"O=C(C=C(c1ccc(Br)cc1)c1ccc(Br)cc1)Nc1ccc(C(=O)O)cc1 [4-[3,3-Bis(p-bromophenyl)acrylamido]benzoic acid]",90
6,"COC(=O)c1cccc(NC(=O)C=C(c2ccc(Cl)cc2)c2ccc(Cl)cc2)c1 [3-[3,3-Bis(p-chlorophenyl)acrylamido]benzoic acid, methyl ester]",94
7,"CC(=O)c1ccc(NC(=O)CC(c2ccc(Cl)cc2)c2ccc(Cl)cc2)cc1 [N--(4-Acetylphenyl)-3,3-bis(p-chlorophenyl)propionamide]",95
8,"COc1ccc(C(CC(=O)Nc2ccc(Br)cc2)c2ccc(OC)cc2)cc1 [N--(p-Bromophenyl)-3,3-bis(4-methoxyphenyl)propionamide]",79
9,"O=C(CC(c1ccc(Cl)cc1)c1ccc(Cl)cc1)Nc1ccc(F)cc1 [N--(4-Fluorophenyl)-3,3-bis(p-chlorophenyl)propionamide]",67
10,"COc1ccc(C(CC(=O)Nc2ccc(C(C)=O)cc2)c2ccc(OC)cc2)cc1 [4'-[3,3-Bis(4-methoxyphenyl)propionamido]acetophenone]",82
11,"O=C(O)c1ccc(NC(=O)C(c2ccc(Cl)cc2)c2ccc(Cl)cc2)cc1 [4-[2,2-Bis(p-chlorophenyl)acetamido]benzoic acid]",71
12,"O=C(CCCCCc1ccc(Cl)cc1)Nc1ccc(C(=O)O)cc1 [4-(p-Chlorophenyl)hexanamidobenzoic acid, 4-[6-(p-Chlorophenyl)hexanamido]benzoic acid]",18
13,"CCOC(=O)c1ccc(NC(=O)CCc2ccc(OC)cc2)cc1 [4-(p-Methoxyhydrocinnamamido)benzoic acid, ethyl ester]",28
14,"O=C(CC(c1ccc(Cl)cc1)c1ccc(Cl)cc1)Nc1ccc(C(F)(F)F)cc1 [N--(4-Trifluoromethylphenyl)-3,3-bis(p-chlorophenyl)propionamide]",35
15,"COc1ccc(C(CC(=O)Nc2ccc(F)cc2)c2ccc(OC)cc2)cc1 [N--(p-Fluorophenyl)-3,3-bis(4-methoxyphenyl)propionamide]",92
16,"O=C(C=Cc1ccc(Cl)cc1)Nc1ccc(C(=O)O)cc1 [4-(p-chlorocinnamamido)benzoic acid, 4-(p-Chlorocinnamamido)benzoic acid]",41
17,CC(=CC(=O)Nc1ccc(C(=O)O)cc1)c1ccc(Cl)cc1 [4-(p-Chloro-β-methylcinnamamido)benzoic acid],71
18,"CC(=O)c1ccc(NC(=O)C=C(c2ccc(Cl)cc2)c2ccc(Cl)cc2)cc1 [4'-Acetyl-3,3-bis(p-chlorophenyl)acrylanilide]",86
19,"CCOC(=O)COC(=O)c1ccc(NC(=O)C=C(c2ccc(Cl)cc2)c2ccc(Cl)cc2)cc1 [4-[p-Chloro-β-(p-chlorophenyl)cinnamamido]benzoic acid, ethyl glycolate ester]",88
20,COc1ccc(C=CC(=O)Nc2ccc(C(=O)O)cc2)cc1 [4-(p-Methoxycinnamamido)benzoic acid],20
21,"COc1ccc(C(CC(=O)Nc2ccc(C#N)cc2)c2ccc(OC)cc2)cc1 [N--(p-Cyanophenyl)-3,3-bis(4-methoxyphenyl)propionamide]",94
22,"COc1ccc(C(CC(=O)Nc2ccc([N+](=O)[O-])cc2)c2ccc(OC)cc2)cc1 [N--(p-Nitrophenyl)-3,3-bis(4-methoxyphenyl)propionamide]",94
